assay: Microsomal stability in rat liver microsomes; conditions: Rat liver microsomes 1 mg/mL protein, 1 μM compound, 37° C., NADPH 4 mM
Procedure: Several compounds were evaluated for stability in rat liver microsomes.
The test compounds (1 μM) were incubated at 37° C. in phosphate buffer (50 mM, pH 7.4) containing rat liver microsomes (1 mg/mL protein) and NADPH (Nicotinamide Adenine Dinucleotide Phosphate, reduced form) (4 mM). The incubation mixtures were quenched with trichloroacetic acid (0.3 M) over 0, 5, 15, 30 min time-course. Quenched solutions were centrifuged and supernatants were transferred for LC/MS quantitation. The half life of a test compounds was derived from the compound stability curve over the time course.

Row | Structure (SMILES) | T1/2 [min]
1 | N#Cc1ccccc1Cn1c(N2CCCC(N)C2)nc2ccccc2c1=O (stereo not drawn) [Example 1, 2-[2-(3-Amino-piperidin-1-yl)-4-oxo-4H-quinazolin-3-ylmethyl]-benzonitrile] | 2.5
2 | COc1cc2nc(N3CCCC(N)C3)n(Cc3ccccc3C#N)c(=O)c2cc1OC (stereo not drawn) [Example 2, 2-[2-(3-Amino-piperidin-1-yl)-6,7-dimethoxy-4-oxo-4H-quinazolin-3-ylmethyl]-benzonitrile] | 106.6
3 | N#Cc1ccccc1Cn1c(N2CCCC(N)C2)nc2ccc(F)cc2c1=O (stereo not drawn) [Example 6, 2-[2-(3-Amino-piperidin-1-yl)-6-fluoro-4-oxo-4H-quinazolin-3-ylmethyl]-benzonitrile] | 31
